Laboratory results published in US20230339937A1, “CONDENSED RING COMPOUNDS THAT INHIBIT H-PGDS” (SATO PHARMACEUTICAL CO., LTD., priority 2020, published 2023).

Molecular target: T1, Recombinant human H-PGDS (Homo sapiens, UniProt O60760)
T1 construct: made in house; host or cells: E. coli
Experiment: H-PGDS inhibitory activity (prostaglandin D2 production from prostaglandin H2, measured by LC-MS/MS)
Format: biochemical
Conditions: recombinant human H-PGDS 1.0 nM expressed in E. coli; prostaglandin H2 25 μM; preincubated 15 minutes on ice, reacted on ice for 1 minute; concentration that inhibits prostaglandin D2 production by 50%
How it was run: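 PGD2 formed from 25 µM prostaglandin H2 during a 1-min on-ice reaction was measured by LC-MS/MS after an FeCl2/citric acid stop. The enzyme was 1.0 nM E. coli-expressed human H-PGDS in Tris-HCl pH 8.0 buffer with MgCl2, reduced glutathione and γ-globulin, preincubated with compound for 15 min on ice. Production was normalised to DMSO controls minus the no-enzyme background.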

T1 sequence (O60760 whole entry): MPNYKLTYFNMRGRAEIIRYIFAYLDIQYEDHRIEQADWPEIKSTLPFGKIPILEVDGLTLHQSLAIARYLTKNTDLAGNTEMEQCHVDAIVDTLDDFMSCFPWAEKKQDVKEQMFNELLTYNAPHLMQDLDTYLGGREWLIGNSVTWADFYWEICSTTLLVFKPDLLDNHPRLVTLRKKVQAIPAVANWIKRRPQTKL

SMILES	IC50
N#CC12CCC(NC(=O)c3ccc(-c4nccc5occc45)cc3)(CC1)CC2 [Example 351, N-(4-cyanobicyclo[2.2.2]octan-1-yl)-4-(furo[3,2-c]pyridin-4-yl)benzamide]	1.3 nM
NC(=O)C12CCC(NC(=O)c3ccc(-c4nccc5occc45)cc3)(CC1)CC2 [Example 352, 4-[4-(furo[3,2-c]pyridin-4-yl)benzamide]bicyclo[2.2.2]octane-1-carboxamide]	0.89 nM
O=C(N[C@H]1CC[C@@H](OCC2(O)CC2)CC1)c1ccc(-c2nccc3occc23)cc1 [Example 353, 4-(furo[3,2-c]pyridin-4-yl)-N-(cis-4-[(1-hydroxycyclopropyl)methoxy]cyclohexyl)benzamide]	1.4 nM
CC(C)(O)[C@H]1CC[C@@H](NC(=O)c2ccc(-c3nccc4occc34)cc2)CC1 [Example 354, 4-(furo[3,2-c]pyridin-4-yl)-N-[cis-4-(2-hydroxypropan-2-yl)cyclohexyl]benzamide]	35 nM
